Test results: US7601721B2, “Substituted heterocyclic compounds” (Gilead Palo Alto, Inc., priority 2004, dated 2009)

test system: Palmitoyl CoA oxidation in rat heart mitochondria; assay: Palmitoyl CoA oxidation in isolated rat heart mitochondria (Mitochondrial Assays); assay type: biochemical; details: 1-C14 palmitoyl CoA, 15 min at 30° C., read-out: Palm CoA inhibition IC50
Experimental: Rat heart mitochondria are isolated by the method of Nedergard and Cannon (Methods in Enzymol. 55, 3, 1979).
Palmitoyl CoA oxidation—The Palmityl CoA oxidation is carried out in a total volume of 100 micro liters containing the following agents: 110 mM KCl, 33 mM Tris buffer at pH 8, 2 mM KPi, 2 mM MgCl2, 0.1 mM EDTA, 14.7 microM defatted BSA, 0.5 mM malic acid, 13 mM carnitine, 1 mM ADP, 52 micrograms of mitochondrial protein, and 16 microM 1-C14 palmitoyl CoA (Sp. Activity 60 mCi/mmole; 20 microCi/ml, using 5 microliters per assay). The compounds of this invention are added in a DMSO solution at the following concentrations: 100 micro molar, 30 micro molar, and 3 micro molar. In each assay, a DMSO control is used. After 15 min at 30° C., the enzymatic reaction is centrifuged (20,000 g for 1 min), and 70 microliters of the supernatant is added to an activated reverse phase silicic acid column (approximately 0.5 ml of silicic acid). The column is eluted with 2 ml of water, and 0.5 ml of the eluent is used for scintillation counting to determine the amount of C^14 trapped as C^14 bicarbonate ion.

In order of falling IC50:
1. CC(=O)NC(COc1ccc2sc(C)nc2c1)CN1CCN(CC(=O)Nc2cccc(-c3ccccc3)c2)CC1 (stereo not shown) [2-{4-[2-(acetylamino)-3-(2-methylbenzothiazol-5-yloxy)propyl]piperazinyl}-N-(3-phenylphenyl)acetamide]  12.7 µM
2. CC(=O)NC(COc1ccc2sc(C)nc2c1)CN1CCN(C(=O)Nc2ccc3c(c2)Cc2ccccc2-3)CC1 (stereo not shown) [N-{2-[4-(N-fluoren-2-ylcarbamoyl)piperazinyl]-1-[(2-methylbenzothiazol-5-yloxy)methyl]ethyl}acetamide]  8.2 µM
3. N-fluoren-2-yl(4-{3-(2-methylbenzothiazol-5-yloxy)-2-[(methylsulfonyl)amino]propyl}-piperazinyl)carboxamide  3 µM
4. Cc1nc2cc(OCC(CN3CCN(CC(=O)Nc4cccc(-c5ccccc5)c4)CC3)NS(C)(=O)=O)ccc2s1 (stereo not shown) [2-(4-{3-(2-methylbenzothiazol-5-yloxy)-2-[(methylsulfonyl)amino]propyl}piperazinyl)-N-(3-phenylphenyl)acetamide]  2.9 µM
